Data set [1] has as its system TXNIP. Description: Inhibition of glucose-induced endogenous TXNIP expression in INS-1 cells (qRT-PCR). The data set is classed as cell-based, Rat. Conditions: Rattus norvegicus, INS1, 24 h, 25 mM glucose; for inhibition at 1.5 µM: 1.5 μM compound; for inhibition at 12.5 µM: 12.5 μM compound. The method, then:
The Rat INS-1 cell line was obtained from UAB and maintained in RPMI-1640 (Invitrogen #11875) supplemented with 10% fetal bovine serum (FBS), 100 U/ml penicillin and […] streptomycin, 10 mM HEPES, 1 mM Sodium Pyruvate, 50 μM 2-Mercaptoethanol, and 11.1 mM Glucose in a humidified incubator with a 5% C02 atmosphere at 37° C. 4×10^4 cells per well were seeded to 96-well plate and incubated at 37° C. overnight. A subset of the cells were then cultured in medium with 5 mM Glucose for 24 hrs and then treated in medium with 25 mM glucose with or without compounds to be tested for another 24 hrs.
For the primary high throughput screening (HTS) assay, stably transfected, monoclonal INS-1 cells were split using Trypsin (2 ml per T75 flask) and seeded at a density of 10^4/well in a 384-well plate and incubated overnight at low, 5 mM glucose. The next day, the medium was changed to high glucose (25 mM) or high glucose plus the small molecules to be tested and luciferase assays were performed 24 h later. […] For secondary screens, total RNA was extracted from 96-well cultured cells using RNeasy 96 kit (Qiagen #74181) following the manufacturer's protocol using spin technology. Then a one-step qRT-PCR amplification was performed using QuantiFast SYBR Green RT-PCR kit (Qiagen #204154) and was carried out in a 10 μl reaction which consisted of 2 μl RNA, 0.5 μM each of primers (Rat TXNIP 5′ primer: […] (SEQ ID NO:1) and Rat TXNIP 3′ primer: […] (SEQ ID NO:2); Or Rat 18S rRNA 5′ primer: […] (SEQ ID NO:3) and Rat 18S rRNA 3′ primer: […]) (SEQ ID NO:4), 5 μl 2×SYBR Green Master Mix, 0.1 μl 10× QuantiFast RT Mix. The SYBR Green assay was performed using a LightCycler 480 II (Roche Applied Science) with an initial incubation at 50° C. for 10 min for RT followed by denaturation at 95° C. for 5 min. Forty cycles of amplification were performed using a thermal cycling profile of 95° C. for 10s, 60° C. for 30 s. Subsequently, a melting curve was recorded by holding at 95° C. for 60 s, cooling to 60° C. for 60 s, and then heating at 0.11° C./s up to 95° C. The data was collected and analyzed using the LightCycler 480 Software Release 1.5.0 SP3. The relative amount of TXNIP mRNA was normalized to 18 s rRNA level as a housekeeping gene, and the data was analyzed according to the 2^−ΔΔCT method (1). The transformed data was expressed as % inhibition and compound IC50 calculated by a 4-parameter logistic fit of the data using GraphPad Prism 7.
In general terms: Quantitative PCR measures a nucleic acid by following its amplification.

Data set [2] in a line: INS-1 cell viability (Cell Titer-Glo, ATP). The data set is classed as cell-based, Rat. Conditions: rat, INS-1 cells, 72 hrs treatment. As for the experimental part: INS-1 cell viability was determined based on quantification of ATP using Cell Titer-Glo Luminescent Cell Viability Assay kit (Promega #G7572), which indicates the presence of metabolically active cells. Briefly, INS-1 cells were seeded into 96-well plates at a cell density of 4.5×10^4 and 3.5×10^4 cells per well and incubated overnight at 37° C. with 5% CO2. On the following day, cells were treated with compounds for 24 hrs and 72 hrs respectively. Cell Titer-Glo reagent was added to the cells and Luminescence was acquired on Synergy 4 Reader ([…]).

Data set [3] has as its system TXNIP. The data set can be described thus: TXNIP expression in isolated primary human islets. The data set is classed as cell-based. The method, then: (§1) Isolated primary human islets were cultured in the presence or absence of compound #11 (Table 1).
Another data set concerns primary human islets. Description: Cytokine-induced β-cell apoptosis in primary human islets. Conditions: Type 1 diabetes associated cytokines. The data set is classed as cell-based. The method, then:
as §1

“Also recorded” adds a separate entry of the source. Bounds are passed on as bounds.

For the molecule `CS(=O)(=O)NCC1CCCN(c2ncnc3ccc(C(F)(F)F)cc23)C1` (stereo not drawn) [Compound 11, N-((1-(6-(trifluoromethyl)quinazolin-4-yl)piperidin-3-yl)methyl)methanesulfonamide], in the data set with TXNIP [1], testing at 1.5 µM gave an inhibition of 45% and the inhibition (commonly the change of the read-out against control, counted positive when it falls) at 12.5 µM is 53%. For the same molecule, the CC50 (in general, the concentration at which the toxic effect on the cells reaches its halfway point) at 72 h in data set [2] was 56 µM. Also, in the data set with TXNIP [3] (Type 1 diabetes associated cytokines), the “pro-inflammatory cytokine-induced TXNIP expression” value is given as “protected”. Also, in the data set on TXNIP [3] (high glucose, vs DMSO control), the “glucose-induced TXNIP expression” value is reported as “inhibition of TXNIP expression; also recorded: specifically inhibited”. Also, the “cytokine-induced β-cell apoptosis / death” value in the data set on primary human islets is given as “inhibits; also recorded: protected”.

For `CS(=O)(=O)NCC1CCCN(c2ncnc3ccc(-c4ncco4)cc23)C1` (stereo not drawn) [Compound 26, N-((1-(6-(oxazol-2-yl)quinazolin-4-yl)piperidin-3-yl)methyl)methanesulfonamide], in the data set with TXNIP [1], the inhibition at 1.5 µM is 2% and 12.5 µM produced 28% inhibition. The CC50 at 72 h in data set [2] was over 100 µM.

For `CS(=O)(=O)NCC1CCCN(c2ncnc3ccc(F)cc23)C1` (stereo not drawn) [Compound 1, N-((1-(6-fluoroquinazolin-4-yl)piperidin-3-yl)methyl)methanesulfonamide], in the data set on TXNIP [1], 1.5 µM produced 44% inhibition and the inhibition at 12.5 µM was determined as 54%. The CC50 at 72 h in data set [2] was over 100 µM.

With `Cc1cc2ncnc(N3CCCC(CNS(C)(=O)=O)C3)c2cc1F` (stereo not drawn) [Compound 22, N-((1-(6-fluoro-7-methylquinazolin-4-yl)piperidin-3-yl)methyl)methanesulfonamide], in the data set on TXNIP [1], the inhibition at 1.5 µM came to 15% and the inhibition at 12.5 µM was 34%. Moreover, in data set [2], the CC50 at 72 h is over 100 µM.

In the data set with TXNIP [1], `COc1ccc2ncnc(N3CCCC(CN(C(C)C)S(=O)(=O)c4ccccc4)C3)c2c1` (stereo not drawn) [Compound 41, N-isopropyl-N-((1-(6-methoxyquinazolin-4-yl)piperidin-3-yl)methyl)benzene-sulfonamide] registered an inhibition at 1.5 µM of 36% and an inhibition at 12.5 µM of 65%. Moreover, the CC50 at 72 h in data set [2] worked out at 7 µM.

As to `CS(=O)(=O)NCC1CCCN(c2ncnc3ccc(C(=O)O)cc23)C1` (stereo not drawn) [Compound 19, 4-(3-(methylsulfonamidomethyl)piperidin-1-yl)quinazoline-6-carboxylic acid], in the data set on TXNIP [1], the inhibition at 1.5 µM amounted to 0% and testing at 12.5 µM gave an inhibition of 5%. Further, the CC50 at 72 h in data set [2] was over 100 µM.

For the molecule `CS(=O)(=O)NCC1CCCN(c2ncnc3cc(N4CCOCC4)c(F)cc23)C1` (stereo not drawn) [Compound 23, N-((1-(6-fluoro-7-morpholinoquinazolin-4-yl)piperidin-3-yl)methyl)methanesulfonamide], in the data set with TXNIP [1], the inhibition at 1.5 µM is 0% and the inhibition at 12.5 µM worked out at 23%. For the same molecule, the CC50 at 72 h in data set [2] was over 100 µM.

In the data set on TXNIP [1], `O=S(=O)(NCC1CCCN(c2ncnc3ccc(F)cc23)C1)N1CCOCC1` (stereo not drawn) [Compound 60, N-((1-(6-fluoroquinazolin-4-yl)piperidin-3-yl)methyl)morpholine-4-sulfonamide] displayed an inhibition at 1.5 µM of 32% and an inhibition at 12.5 µM of 56%. Further, the CC50 at 72 h in data set [2] came out at 16 µM.

Turning to `CC(C)(C)C(=O)Nc1ccc2ncnc(N3CCCC(CNS(C)(=O)=O)C3)c2c1` (stereo not drawn) [Compound 25, N-(4-(3-(methylsulfonamidomethyl)piperidin-1-yl)quinazolin-6-yl)pivalamide], in the data set with TXNIP [1], the inhibition at 1.5 µM worked out at 28% and the inhibition at 12.5 µM is 51%. For the same molecule, the CC50 at 72 h in data set [2] is over 100 µM.

Regarding `O=S(=O)(NCC1CCCN(c2ncnc3ccc(C(F)(F)F)cc23)C1)C1CCCCC1` (stereo not drawn) [Compound 55, N-((1-(6-(trifluoromethyl)quinazolin-4-yl)piperidin-3-yl)methyl)cyclohexanesulfonamide], in the data set on TXNIP [1], the inhibition at 1.5 µM turned out to be 29% and at 12.5 µM the inhibition was 41%. The CC50 at 72 h in data set [2] was 7 µM.

Consider `CS(=O)(=O)NCC1CCCN(c2ncnc3cc(O)c(C(F)(F)F)cc23)C1` (stereo not drawn) [Compound 63, N-((1-(7-hydroxy-6-(trifluoromethyl)quinazolin-4-yl)piperidin-3-yl)methyl)methanesulfonamide], for which, in the data set with TXNIP [1], the inhibition at 1.5 µM worked out at 10% and the inhibition at 12.5 µM was 5%. In data set [2], the CC50 at 72 h is over 100 µM.

On to `CS(=O)(=O)NC1CCCN(c2ncnc3cc(F)c(C(F)(F)F)cc23)C1` (stereo not drawn) [Compound 39, N-(1-(7-fluoro-6-(trifluoromethyl)quinazolin-4-yl)piperidin-3-yl)methanesulfonamide], for which, in the data set with TXNIP [1], the inhibition at 1.5 µM is 7% and testing at 12.5 µM gave an inhibition of 28%. Besides, the CC50 at 72 h in data set [2] is over 100 µM.

As to `CS(=O)(=O)NCC1CCCN(c2ncnc3cc(C#N)c(F)cc23)C1` (stereo not drawn) [Compound 20, N-((1-(7-cyano-6-fluoroquinazolin-4-yl)piperidin-3-yl)methyl)methanesulfonamide], in the data set on TXNIP [1], at 1.5 µM the inhibition was 19% and the inhibition at 12.5 µM is 30%. Further, in data set [2], the CC50 at 72 h is over 100 µM.

In the data set on TXNIP [1], `CC(C)c1nc(N2CCCC(CNS(C)(=O)=O)C2)c2ccccc2n1` (stereo not drawn) [Compound 15, N-((1-(2-isopropylquinazolin-4-yl)piperidin-3-yl)methyl)methanesulfonamide] displayed an inhibition at 1.5 µM of 0% and an inhibition at 12.5 µM of 20%. Besides, the CC50 at 72 h in data set [2] amounted to 73 µM.

In the data set with TXNIP [1], `CC(C)N(CC1CCCN(c2ncnc3ccccc23)C1)S(C)(=O)=O` (stereo not drawn) [Compound 40, N-isopropyl-N-((1-(quinazolin-4-yl)piperidin-3-yl)methyl)methanesulfonamide] had an inhibition at 1.5 µM of 14% and an inhibition at 12.5 µM of 46%. Besides, the CC50 at 72 h in data set [2] stood at 70 µM.

In the data set with TXNIP [1], `CS(=O)(=O)NC1CCCN(c2ncnc3ccc(Cl)cc23)C1` (stereo not drawn) [Compound 35, N-(1-(6-chloroquinazolin-4-yl)piperidin-3-yl)methanesulfonamide] displayed an inhibition at 1.5 µM of 38% and an inhibition at 12.5 µM of 64%. Also, the CC50 at 72 h in data set [2] turned out to be 41 µM.

In the data set with TXNIP [1], `COc1ccc2ncnc(N3CCCC(CNS(C)(=O)=O)C3)c2c1` (stereo not drawn) [Compound 5, N-((1-(6-methoxyquinazolin-4-yl)piperidin-3-yl)methyl)methanesulfonamide] returned an inhibition at 1.5 µM of 30% and an inhibition at 12.5 µM of 58%. Moreover, the CC50 at 72 h in data set [2] is over 100 µM.
